Source: US20260198495A1, “BINARY INSECTICIDE COMPOSITION AND USE THEREOF” (SHENYANG SINOCHEM AGROCHEMICALS R & D CO., LTD., priority 2022, published 2026)

Key:
Type in all cases: in vivo
[1] = tested on: 2nd-instar larvae of Plutella xylostella; assay: Joint toxicity of I-72 + tetraniliprole, Example 58, Table 58; conditions: Plutella xylostella, foliar; A = compound I-72, B = tetraniliprole; cabbage leaf dipping; 72 hours; read-out: LC50
Protocol: Test target: 2nd-instar larvae of Plutella xylostella.
(§1) Preparation of the pesticide solution: according to different test requirements, the test samples were accurately weighed respectively with an electronic analytical balance. The technical pesticides were dissolved in acetone, and then diluted with 0.1% Tween 80 water into a series of pesticide solutions with a certain concentration gradient according to the experimental design dosage.
(§2) Experimental method: first, cabbage leaves were selected and dipped in the prepared pesticide solution for 10 s in the order from low dosage to high dosage according to the experimental design. After natural air-drying in the shade, they were placed in a 9-cm-diameter Petri dish with filter paper, and uniform and healthy test insects were introduced, with 10 insects for each treatment and 3 replicates for each treatment. In addition, a blank control was set up.
(§3) The treated test materials were placed in an observation room, and the temperature, humidity and illumination of the observation room could be adjusted as needed. The number of dead and live insects was investigated 72 hours later. […] Then, the co-toxicity coefficient of each ratio was calculated using the Sun Y-P method to evaluate the mixing effect (the same as in Example 1).

[2] = tested on: adult Tetranychus cinnabarinus (Boisduval); assay: Joint toxicity of I-72 + spirodiclofen, potted-seedling spraying, Example 25, Table 25; conditions: Tetranychus cinnabarinus, A = compound I-72, B = spirodiclofen, 72 hours, read-out: LC50
Protocol: Test target: adult Tetranychus cinnabarinus (Boisduval), a sensitive strain reared indoors.
as §1
Experimental method: the activity of the mixture against the adult Tetranychus cinnabarinus (Boisduval) was determined by adopting the potted-seedling spraying method. First, the adult Tetranychus cinnabarinus of uniform size were transferred onto the leaves of kidney bean seedlings at the stage when the first pair of true leaves was fully expanded. After the adult mites had stabilized, the base number was counted. Then, the uniform spraying was performed with the pesticide solution in the order from low to high dose according to the experimental design, with 1.5 mL for each seedling and 3 replicates for each treatment. […]
as §3, with “needed.” for “needed. The number of dead and live insects was investigated 72 hours later.”, “effect,” for “effect (the same”, “1.” for “1).”

[3] = tested on: Bemisia tabaci (Gennadius) nymphs; assay: Joint toxicity of I-72 + spiromesifen, Example 27, Table 27; conditions: Bemisia tabaci; A = compound I-72, B = spiromesifen; cotton leaf-disk spraying; 96 hours; read-out: LC50
Protocol: Test target: Bemisia tabaci (Gennadius) nymphs, a sensitive strain reared indoors.
as §1
Experimental method: first, cotton leaves with neat and consistent Bemisia tabaci (Gennadius) nymphs were selected and made into leaf disks, with about 20 insects on each leaf disk. Then, they were evenly sprayed with the pesticide solution in the order from low dosage to high dosage according to the experimental design, with 1.5 mL for each leaf and 3 replicates for each treatment. In addition, a blank control was set up.
as §3, with “96” for “72”

[4] = tested on: 3rd-instar larvae of Ostrinia furnacalis Guenee; assay: Joint toxicity of I-72 + organophosphorus insecticides, corn stalk dipping, Example 21, Table 21; conditions: 3rd-instar larvae, corn stalk dipping, 48 h, A = compound I-72, B = acephate, read-out: LC50
Protocol: Test target: 3rd-instar larvae of Ostrinia furnacalis Guenee, a sensitive strain reared indoors.
as §1
as §2, with “fresh tender corn stalks cultivated in the greenhouse” for “cabbage leaves”, “selected, cut into small sections of 3 cm,” for “selected”
The treated test materials were placed in an observation room, and the temperature, humidity and illumination of the observation room could be adjusted as needed. The number of dead and live insects was investigated 48 hours later. The corrected mortality rate was calculated using the Abbott's formula, and statistical analysis was performed with the DPS data processing software to obtain the toxicity regression equation, LC50 value and 95% confidence limit of each single test pesticide and each mixture of different ratios. Then, the co-toxicity coefficient of each ratio was calculated using the Sun Y-P method to evaluate the mixing effect (the same as in Example 1).

[5] = tested on: 3rd-instar larvae of Ostrinia furnacalis Guenee; assay: Joint toxicity of I-72 + pymetrozine, Example 79, Table 79; conditions: A = compound I-72, B = pymetrozine, corn stem dipping, 72 hours, read-out: LC50
Protocol: Test target: 3rd-instar larvae of Ostrinia furnacalis Guenee.
as §1
as §2, with “tender corn stems” for “cabbage leaves”
as §3

Spodoptera exigua Hübner = assay: Field efficacy trial of I-72 and Spodoptera exigua Hübner nucleopolyhedrovirus, Example 87, Table 87; conditions: spraying
Protocol: This trial was arranged in the field trial shed area of the Wuhan Vegetable Research Institute. The spraying method was adopted for pesticide application. The investigation method was to take samples at 5 points, with 2 fixed plants at each point. A total of 10 plants were investigated in each plot, and the trial was repeated four times. The population base of pests was investigated before the pesticide application, and investigations were performed 3 days and 7 days after the pesticide application. The amount of water used per mu was 30L. The calculation method for the efficacy of the test pesticides is as follows:
Test pesticides: A: Spodoptera exigua Hübner nucleopolyhedrovirus suspension with 3 billion PIBs (produced by Henan Jiyuan Baiyun Industrial Co., Ltd.); and B: compound I-72 (dissolved in acetone, 0.1% Tween 80 was added, and a 10% stock solution was prepared for use).

CN(C(=O)c1ccc2c(c1)OC(F)(F)O2)c1cccc(C(=O)Nc2c(Br)cc(C(F)(C(F)(F)F)C(F)(F)F)cc2OC(F)F)c1F [Compound I-72]
LC50 [1]: 0.0888 µg/mL
LC50 [2]: 35.1 µg/mL
LC50 [3]: 11.9 µg/mL
LC50 [4]: 1.19 µg/mL
LC50 [5]: 0.801 µg/mL
Control efficacy 3 days after pesticide application (Spodoptera exigua Hübner; dose 6 ml per mu): 59.8%
Control efficacy 7 days after pesticide application (Spodoptera exigua Hübner; dose 6 ml per mu): 71.5%
Control efficacy 3 days after pesticide application (Spodoptera exigua Hübner; dose 9 ml per mu): 66.5%
Control efficacy 7 days after pesticide application (Spodoptera exigua Hübner; dose 9 ml per mu): 75.2%
Control efficacy 3 days after pesticide application (Spodoptera exigua Hübner; dose 12 ml per mu): 72.8%
Control efficacy 7 days after pesticide application (Spodoptera exigua Hübner; dose 12 ml per mu): 82.4%
